The values below are quoted from earlier work in patent publication US20190183792A1, “COMPOSITION AND METHOD FOR TREATING HERPESVIRUS IN MAMMALS” (VELOCE BIOPHARMA, LLC, priority 2016, published 2019).

Data set [1] concerns Feline Herpesvirus. As to conditions: research by Nasisse.
For data set [2] the following is noted: compared among the antivirals.
The test system of data set [3] is Human herpes simplex virus.
Data set [4] has as its system ocular herpesvirus infection. As to conditions: canine models in vivo.

For the compound `O=c1[nH]c(=O)n([C@H]2C[C@H](O)[C@@H](CO)O2)cc1C(F)(F)F` [Triflurothymidine], in data set [1], the “effectiveness against Feline Herpesvirus (rank order)” value (from here on “effectiveness … (rank order)”) is given as “most effective”. Besides, in data set [2], the effectiveness entry is reported as “most effective”, the solubility result is “most soluble” and the toxicity result is reported as “least toxic”.

In the case of `Nc1nc2c(ncn2COCCO)c(=O)[nH]1` [Acyclovir], the “effectiveness … (rank order)” value in data set [1] was “not effective”. In addition, in data set [3], the “effectiveness against Human herpes simplex virus” value is “most effective”.

For the compound `Nc1ncnc2c1ncn2[C@@H]1O[C@H](CO)[C@@H](O)[C@@H]1O` [Adenine Arabinoside], the “effectiveness … (rank order)” value in data set [1] is given as “then Adenine Arabinoside”.

Regarding `O=c1[nH]c(=O)n([C@H]2C[C@H](O)[C@@H](CO)O2)cc1I` [Idoxuridine], the solubility result in data set [2] is “poorly soluble”.

Consider `Nc1ccn(C[C@@H](CO)OCP(=O)(O)O)c(=O)n1` [Cidofovir], for which, in data set [4], the local ocular toxicity result is on record as “local ocular toxicity is significant” and the viral shedding entry was “decrease viral shedding”.
